Data as given in patent publication US10363239B2, “Method for inhibiting growth of cancer cells” (Pain Therapeutics, Inc., priority 2013, dated 2019).
Read-outs that look alike come from different tables or passages of the source.

Assays:
[1] = target: FLNA pentapeptide of SEQ ID NO: 1 (Bn-VAKGL) (Homo sapiens, UniProt P21333); experiment: FITC-NLX-based FLNA screening assay (inhibition of FITC-naloxone binding to Bn-VAKGL on streptavidin plates); conditions: 10 nM FITC-NLX
mu opiate receptor (MOR) = experiment: MOR agonist activity using [35S]GTPγS binding assay in striatal membranes; type: biochemical; conditions: for MOR agonist activity ([35S]GTPγS binding), FLNA-Binding Compound as Agonist 1 μM + BFNA: 1 μM compound + 1 μM β-funaltrexamine
In short: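 Striatal membranes (200 μg) were preincubated 5 min at 30 °C in HEPES pH 7.5 with 100 mM NaCl, 1 mM MgCl2 and 0.5 nM [35S]GTPγS, then 5 min more with 0.1–10 μM compound. Gαo was immunoprecipitated and bound radioactivity counted by scintillation.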

[2] = read-out: Percent Binding Inhibition, FLNA-binding compound 0.01 μM
[3] = read-out: Percent Binding Inhibition, FLNA-binding compound 0.1 μM
[4] = read-out: Percent Binding Inhibition, FLNA-binding compound 1 μM
[5] = Series C-2, 0.1 μM compound, relative to DAMGO
[6] = Series C-2, 0.1 μM compound, [35S]GTPγS binding to Gαo, striatal membranes
[7] = Series C-2, 1 μM compound + 1 μM β-FNA
[8] = Series C-2, 1 μM compound + β-FNA, relative to DAMGO + BFNA
[9] = Series C-2, 1 μM compound, relative to DAMGO
[10] = Series C-2, 1 μM compound, [35S]GTPγS binding to Gαo, striatal membranes
[11] = 0.1 μM compound relative to DAMGO
[12] = 1 μM compound + BFNA relative to DAMGO + BFNA
[13] = 1 μM compound relative to DAMGO
[14] = Series C-1, 0.1 μM compound, relative to DAMGO
[15] = Series C-1, 0.1 μM compound, [35S]GTPγS binding to Gαo, striatal membranes
[16] = Series C-1, 1 μM compound + 1 μM β-FNA
[17] = Series C-1, 1 μM compound + β-FNA, relative to DAMGO + BFNA
[18] = Series C-1, 1 μM compound, relative to DAMGO
[19] = Series C-1, 1 μM compound, [35S]GTPγS binding to Gαo, striatal membranes
[20] = FLNA-binding compound 0.01 μM, read-out: Percent Binding Inhibition
[21] = FLNA-binding compound 0.1 μM, read-out: Percent Binding Inhibition
[22] = FLNA-binding compound 1 μM, read-out: Percent Binding Inhibition
[23] = Series B, 0.1 μM compound, relative to DAMGO
[24] = Series B, 0.1 μM compound, [35S]GTPγS binding to Gαo, striatal membranes
[25] = Series B, 1 μM compound + 1 μM β-FNA
[26] = Series B, 1 μM compound + β-FNA, relative to DAMGO + BFNA
[27] = Series B, 1 μM compound, relative to DAMGO
[28] = Series B, 1 μM compound, [35S]GTPγS binding to Gαo, striatal membranes

Row | Structure (SMILES) | inhibition at 0.01 µM [1, 2] [%] | inhibition at 0.1 µM [1, 3] [%] | inhibition at 1 µM [1, 4] [%] | MOR agonist activity ([35S]GTPγS binding), FLNA-Binding Compound as Agonist 0.1 μM (mu opiate receptor (MOR); 0.1 μM compound) [%] | % DAMGO (0.1 μM) (mu opiate receptor (MOR); [11]) [%] | MOR agonist activity ([35S]GTPγS binding), FLNA-Binding Compound as Agonist 1 μM (mu opiate receptor (MOR); 1 μM compound) [%] | MOR agonist activity ([35S]GTPγS binding), FLNA-Binding Compound as Agonist 1 μM + BFNA (mu opiate receptor (MOR)) [%] | % DAMGO + BFNA (mu opiate receptor (MOR); [12]) [%] | % DAMGO (1 μM) (mu opiate receptor (MOR); [13]) [%] | % DAMGO (0.1 μM) (mu opiate receptor (MOR); [14]) [%] | Concentration of FLNA-Binding Compound as Agonist 0.1 μM (mu opiate receptor (MOR); [15]) [%] | Concentration of FLNA-Binding Compound as Agonist 1 μM + BFNA (mu opiate receptor (MOR); [16]) [%] | % DAMGO + BFNA (mu opiate receptor (MOR); [17]) [%] | % DAMGO (1 μM) (mu opiate receptor (MOR); [18]) [%] | Concentration of FLNA-Binding Compound as Agonist 1 μM (mu opiate receptor (MOR); [19]) [%] | inhibition at 0.01 µM [1, 20] [%] | inhibition at 0.1 µM [1, 21] [%] | inhibition at 1 µM [1, 22] [%] | further results
1 | O=C1CNC2(CCNCC2)N1Cc1ccccc1 [Compound C0114M] | 57.1 | 63.2 | 66.7 |  |  |  |  |  |  |  |  |  |  |  |  |  |  |  | % DAMGO (0.1 μM) (mu opiate receptor (MOR); [5]): 77.6%; MOR agonist activity, percent [35S]GTPγS binding at the stated compound concentration (mu opiate receptor (MOR); [6]): 114.0%; MOR agonist activity, percent [35S]GTPγS binding at the stated compound concentration (mu opiate receptor (MOR); [7]): 35.9%; % DAMGO + BFNA (mu opiate receptor (MOR); [8]): 91.3%; % DAMGO (1 μM) (mu opiate receptor (MOR); [9]): 71.4%; MOR agonist activity, percent [35S]GTPγS binding at the stated compound concentration (mu opiate receptor (MOR); [10]): 144.3%
2 | OC(COc1ccc(Br)c(F)c1)CN1CCSCC1 (stereo not drawn) [Compound A0059] | 27.4 | 36.6 | 38.7 | 99.2 | 63.5 | 129.9 | 85.7 | 214.8 | 56.4 |  |  |  |  |  |  |  |  |  | 
3 | CC(=O)c1ccc(C(=O)N2CCC3(CC2)OCCN3S(=O)(=O)c2ccc(C(C)=O)cc2)cc1 [Compound C0052] | 28 | 35.6 | 40.8 |  |  |  |  |  |  | 74.8 | 108.4 | 42.7 | 97.0 | 69.9 | 162.8 |  |  |  | 
4 | O=C(O)c1ccc(C(=O)N2CCC3(CC2)OCCN3S(=O)(=O)c2ccc(C(=O)O)cc2)cc1 [Compound C0021] |  |  |  |  |  |  |  |  |  | 94.5 | 159.7 | 90.7 | 546.4 | 87.8 | 192.0 | 34 | 38.4 | 40.6 | 
5 | CC(O)c1ccc(S(=O)(=O)N2CCC3(CC2)OCCN3S(=O)(=O)c2ccc(C(C)O)cc2)cc1 (stereo not drawn) [Compound C0051] | 27 | 30.4 | 36.4 |  |  |  |  |  |  | 65.1 | 94.4 | 55.9 | 127.0 | 73.1 | 170.4 |  |  |  | 
6 | COc1c2c(cc3c1C(CC(=O)c1ccc(O)c(C)c1)[N+](C)(C)CC3)OCO2 (stereo not drawn) [Compound B0002] | 40.2 | 46.4 | 55 |  |  |  |  |  |  |  |  |  |  |  |  |  |  |  | % DAMGO (0.1 μM) (mu opiate receptor (MOR); [23]): 100.0%; MOR agonist activity, percent [35S]GTPγS binding at the stated compound concentration (mu opiate receptor (MOR); [24]): 165.7%; MOR agonist activity, percent [35S]GTPγS binding at the stated compound concentration (mu opiate receptor (MOR); [25]): 101.4%; % DAMGO + BFNA (mu opiate receptor (MOR); [26]): 156.0%; % DAMGO (1 μM) (mu opiate receptor (MOR); [27]): 81.1%; MOR agonist activity, percent [35S]GTPγS binding at the stated compound concentration (mu opiate receptor (MOR); [28]): 219.0%
7 | CC1CCC(C(C)C)C(OCC(O)CN2CCSCC2)C1 (stereo not drawn) [Compound A0003] | 21.3 | 31.6 | 37.4 | 176.8 | 118.3 | 276.0 | 17.1 | 64.5 | 119.9 |  |  |  |  |  |  |  |  |  | 
8 | CC1CCC(C(C)C)C(OCC(O)CN(C(C)C)C(C)C)C1 (stereo not drawn) [Compound A0037] | 49.3 | 51.3 | 56.8 | 177.9 | 90.7 | 236.2 | 104.6 | 141.5 | 85.6 |  |  |  |  |  |  |  |  |  | 
9 | O=C(c1ccc([N+](=O)[O-])cc1)N1CCC2(CC1)OCCN2C(=O)c1ccc([N+](=O)[O-])cc1 [Compound C0032] | 41.5 | 50.5 | 55.3 |  |  |  |  |  |  | 92.8 | 145.4 | 80.9 | 248.2 | 87.3 | 202.0 |  |  |  | 
10 | COc1cccc(OC)c1CC(=O)CC1c2c(cc3c(c2OC)OCO3)CC[N+]1(C)C (stereo not drawn) [Compound B0036] | 46.6 | 52.8 | 62.1 |  |  |  |  |  |  |  |  |  |  |  |  |  |  |  | % DAMGO (0.1 μM) (mu opiate receptor (MOR); [23]): 39.2%; MOR agonist activity, percent [35S]GTPγS binding at the stated compound concentration (mu opiate receptor (MOR); [24]): 61.4%; MOR agonist activity, percent [35S]GTPγS binding at the stated compound concentration (mu opiate receptor (MOR); [25]): 65.1%; % DAMGO + BFNA (mu opiate receptor (MOR); [26]): 199.7%; % DAMGO (1 μM) (mu opiate receptor (MOR); [27]): 52.1%; MOR agonist activity, percent [35S]GTPγS binding at the stated compound concentration (mu opiate receptor (MOR); [28]): 120.6%
11 | CC1CN(CC(O)COc2ccccc2Br)CC(C)O1 (stereo not drawn) [Compound A0043] |  |  |  | 183.3 | 93.4 | 223.8 | 89.1 | 120.6 | 81.1 |  |  |  |  |  |  | 46.4 | 48.9 | 51.8 | 
12 | COc1ccc(S(=O)(=O)N2CCC3(CC2)OCCN3S(=O)(=O)c2ccc(OC)cc2)cc1 [Compound 7866] |  |  |  |  |  |  |  |  |  | 79.3 | 152.3 | 62.4 | 129.5 | 94.8 | 308.2 | 38.5 | 47.9 | 53.4 | 
13 | Cc1ccc(C(C)C)c(OCC(O)CN2CC(C)OC(C)C2)c1 (stereo not drawn) [Compound A0028] |  |  |  | 143.6 | 81.3 | 187.7 | 116.7 | 443.7 | 73.8 |  |  |  |  |  |  | 39.5 | 43.8 | 50.5 | 
14 | COc1ccc(S(=O)(=O)N2CCOC23CCN(C(=O)OC(C)(C)C)CC3)cc1 [Compound C0043] |  |  |  |  |  |  |  |  |  |  |  |  |  |  |  | 43.9 | 51.3 | 58 | % DAMGO (0.1 μM) (mu opiate receptor (MOR); [5]): 103.8%; MOR agonist activity, percent [35S]GTPγS binding at the stated compound concentration (mu opiate receptor (MOR); [6]): 175.4%; MOR agonist activity, percent [35S]GTPγS binding at the stated compound concentration (mu opiate receptor (MOR); [7]): 83.3%; % DAMGO + BFNA (mu opiate receptor (MOR); [8]): 501.8%; % DAMGO (1 μM) (mu opiate receptor (MOR); [9]): 110.9%; MOR agonist activity, percent [35S]GTPγS binding at the stated compound concentration (mu opiate receptor (MOR); [10]): 242.6%
15 | COc1ccc(S(=O)(=O)N2CCC3(OCCN3S(=O)(=O)c3ccc(OC)cc3)C3CCCCC32)cc1 (stereo not drawn) [Compound C0144M] |  |  |  |  |  |  |  |  |  | 108.3 | 186.3 | 125.9 | 137.9 | 90.8 | 295.9 | 46.4 | 50.7 | 55.7 | 
16 | CC1CN(CC(O)COc2ccccc2)CC(C)O1 (stereo not drawn) [Compound A0025] | 39 | 49.8 | 53.2 | 58.6 | 33.2 | 138.7 | 52.2 | 198.5 | 54.5 |  |  |  |  |  |  |  |  |  | 
17 | COC(=O)c1ccc(S(=O)(=O)N2CCC3(CC2)OCCN3S(=O)(=O)c2ccc(C(=O)OC)cc2)cc1 [Compound C0028] |  |  |  |  |  |  |  |  |  | 55.6 | 93.9 | 78.4 | 472.3 | 60.5 | 132.4 | 32.2 | 36.6 | 43.3 | 
18 | O=S(=O)(c1ccc(Br)cc1C(F)(F)F)N1CCC2(CC1)OCCN2S(=O)(=O)c1ccc(Br)cc1C(F)(F)F [Compound C0068] | 53.7 | 58.6 | 62.2 |  |  |  |  |  |  | 53.4 | 107.2 | 165.9 | 307.8 | 83.8 | 263.1 |  |  |  | 
